Data: patent publication US12043632B2, “6-heteroaryloxy benzimidazoles and azabenzimidazoles as JAK2 inhibitors” (Ajax Therapeutics, Inc., priority 2020, dated 2024)

Target: T1, JAK2 (JH1domain-catalytic, Y1007F,Y1008F) kinase (Homo sapiens, UniProt O60674, Y1007F/Y1008F)
T1 construct: JAK2 (JH1domain-catalytic, Y1007F,Y1008F) kinase was expressed as N-terminal fusion; made in house; host or cells: transiently transfected HEK293 cells
Test: JAK2 JH1 Domain Binding Assay
Details: qPCR readout

T1 sequence (O60674 849-1124 Y1007F/Y1008F limits assumed): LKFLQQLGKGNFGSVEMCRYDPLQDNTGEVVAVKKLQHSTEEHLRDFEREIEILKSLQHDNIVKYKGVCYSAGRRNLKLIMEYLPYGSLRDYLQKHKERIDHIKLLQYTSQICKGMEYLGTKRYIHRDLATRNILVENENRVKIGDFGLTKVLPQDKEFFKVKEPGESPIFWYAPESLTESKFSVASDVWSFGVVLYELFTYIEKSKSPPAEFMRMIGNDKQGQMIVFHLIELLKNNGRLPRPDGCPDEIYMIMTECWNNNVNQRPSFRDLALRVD

Kd | SMILES
10 to 50 nM | Cn1c(Nc2cc(C(C)(C)C)n([C@H]3COC[C@@H]3O)n2)nc2ncc(Oc3cnn4ccnc4c3)c(Cl)c21 (single isomer, unassigned) [Example I-23]
50 to 1000 nM | Cn1c(Nc2cc(C(C)(C)C)n([C@@H]3COC[C@H]3O)n2)nc2ncc(Oc3cnn4ccnc4c3)c(Cl)c21 (single isomer, unassigned) [Example I-24]
< 10 nM | CC(O)Cn1nc(Nc2nc3ncc(Oc4cnn5ccncc45)c(Cl)c3n2C)cc1C(C)(C)C (single isomer, unassigned) [Example I-37]
< 10 nM | C[C@@H](O)Cn1nc(Nc2nc3ncc(Oc4cnn5ccncc45)c(Cl)c3n2C)cc1C(C)(C)C (single isomer, unassigned) [Example I-38]
< 10 nM | Cn1c(Nc2cc(C(C)(C)C)n([C@@H]3CCOC34CC4)n2)nc2ncc(Oc3cnn4ccncc34)c(Cl)c21 (single isomer, unassigned) [Example I-41-a]
< 10 nM | Cn1c(Nc2cc(C(C)(C)C)n([C@@H]3CCOC34CC4)n2)nc2ncc(Oc3cnn4ccncc34)c(Cl)c21 (single isomer, unassigned) [Example I-41-b]
< 10 nM | Cn1c(Nc2cc(C(C)(C)C)n(C3COCC3O)n2)nc2ncc(Oc3cnn4ccncc34)c(Cl)c21 (single isomer, unassigned) [Example I-47]
< 10 nM | Cn1c(Nc2cc(C(C)(C)C)n(C3COCC3O)n2)nc2ncc(Oc3cnn4ccncc34)c(Cl)c21 (single isomer, unassigned) [Example I-48]
10 to 50 nM | Cn1c(Nc2nc([C@H]3CCOC3)c(C(C)(C)C)s2)nc2ncc(Oc3cnn4ccnc4c3)c(Cl)c21 (single isomer, unassigned) [Example I-56-a]
10 to 50 nM | Cn1c(Nc2nc([C@@H]3CCOC3)c(C(C)(C)C)s2)nc2ncc(Oc3cnn4ccnc4c3)c(Cl)c21 (single isomer, unassigned) [Example I-56-b]
10 to 50 nM | Cn1c(Nc2cc(C(C)(C)C)n([C@H]3CCC[C@H]3O)n2)nc2ncc(Oc3cnn4ccncc34)c(Cl)c21 (single isomer, unassigned) [Example I-60-a]
< 10 nM | Cn1c(Nc2cc(C(C)(C)C)n([C@@H]3CCC[C@@H]3O)n2)nc2ncc(Oc3cnn4ccncc34)c(Cl)c21 (single isomer, unassigned) [Example I-60-b]
50 to 1000 nM | COc1c(Oc2cnn3ccncc23)cnc2nc(Nc3cc(C(C)(C)C)n([C@H]4CCC[C@H]4O)n3)n(C)c12 (single isomer, unassigned) [Example I-69-a]
10 to 50 nM | COc1c(Oc2cnn3ccncc23)cnc2nc(Nc3cc(C(C)(C)C)n([C@@H]4CCC[C@@H]4O)n3)n(C)c12 (single isomer, unassigned) [Example I-69-b]
50 to 1000 nM | Cn1c(Nc2cc(C(C)(C)C)n([C@H]3CCC[C@H]3O)n2)nc2ncc(Oc3cnn4ccncc34)c(C(F)F)c21 (single isomer, unassigned) [Example I-71-a]
10 to 50 nM | Cn1c(Nc2cc(C(C)(C)C)n([C@@H]3CCC[C@@H]3O)n2)nc2ncc(Oc3cnn4ccncc34)c(C(F)F)c21 (single isomer, unassigned) [Example I-71-b]
< 10 nM | COc1c(Oc2cnn3ccncc23)cnc2nc(Nc3cc(C4CC4)cn([C@@H]4CCCOC4)c3=O)n(C)c12 (single isomer, unassigned) [Example I-72-a]
< 10 nM | COc1c(Oc2cnn3ccncc23)cnc2nc(Nc3cc(C4CC4)cn([C@H]4CCCOC4)c3=O)n(C)c12 (single isomer, unassigned) [Example I-72-b]
< 10 nM | Cn1c(Nc2cc(C3CC3)cn([C@H]3CCCOC3)c2=O)nc2ncc(Oc3cnn4ccncc34)c(Cl)c21 (single isomer, unassigned) [Example I-73-a]
< 10 nM | Cn1c(Nc2cc(C3CC3)cn([C@@H]3CCCOC3)c2=O)nc2ncc(Oc3cnn4ccncc34)c(Cl)c21 (single isomer, unassigned) [Example I-73-b]
10 to 50 nM | Cn1c(Nc2cc(C(C)(C)C)n([C@H]3COC[C@@H]3O)n2)nc2ncc(Oc3cnc4cnc(C5CC5)n4c3)c(Cl)c21 (single isomer, unassigned) [Example I-76-a]
